Where “and” joins values, the source holds several entries; their conditions need not be identical. Identical values can stand only once.
Test system: hind paw of mice
Experiment: Electronic Von-Frey mechanical sensitivity (withdrawal thresholds) after Paclitaxel-induced neuropathic pain
Type: in vivo
Details: for Withdrawal test, test 1 / Withdrawal test, test 4 / Withdrawal test, test 5 / Withdrawal test, test 2 / Withdrawal test, test 3 / Withdrawal test, test 6: per animal; for Withdrawal test, All group average: 8 mice; for Withdrawal test, Average: average per animal; for Withdrawal test, test 6: additional test
Protocol: Mechanical sensitivity was evaluated by measuring the changes in tactile sensitivity in the hind paw of mice, using an Electronic Von-Frey apparatus (EVF). Withdrawal thresholds were measured, using the EVF apparatus, first at baseline (time=0) and then following drug, in a few periods after administration, by applying an accurate force on specific areas of the skin and measuring the needed force for the mouse to lift its paw.
Paclitaxel was utilized for the stimulation of a chemotherapy-induced neuropathic pain. Paclitaxel is anti-cancer chemotherapy drug classified as a “plant alkaloid” and an “antimicrotubule agent”.
Mice were divided into three groups of 8 mice each, as follows: • (a) Group no. 1—Morphine as positive control; • (b) Group no. […] 3—synthetic THC derivative 9-Desmethyl THC.
A portion of Paclitaxel was administered to each mouse by i.p. injection, on days 1, 3, 5 and 7 from the beginning of the experiment. At day 8, withdrawal thresholds were measured first at baseline (time=0), thereafter each mouse received a single portion of a drug substance, at 5 mg/Kg body weight concentration, by oral gavage and measurements took place.
The first checking point was 1 hour after administration of each drug. For every mouse, its threshold for the pain perception in which it removes its hind paw after the stabbing of the Von-Frey hair has been checked. Needed force (in gram force units) was measured each time and was recorded for every checking. This test was repeated 5 times for each mouse consecutively.
This procedure was repeated for all the three groups. The next checking point was 3 hours after administration, where the last withdrawal thresholds measurements were performed on the next morning, on day 9, which was 24 hours after administration.
Morphine was utilized as a positive control where group no. 1 mice received morphine (dissolved in a saline solution (0.9%) and injected subcutaneously) as an analgesic agent, prior to the mechanical sensitivity tests.
The tests described in this example are complicated and depend on numerous factors. Accordingly, results above 10.0 gram force (marked with an asterisk) were not included in the evaluation of the experimental data. In cases of exceptional results, an additional test was performed mouse (test 6) in order to assure the exceptional result.

[1] = t = 1 h after 5 mg/Kg, * values excluded
[2] = t = 3 h after 5 mg/Kg, * values excluded
[3] = t = 24 h after 5 mg/Kg, * values excluded

## [2H]C([2H])([2H])C1=C[C@H]2c3c(O)cc(CCCCC)cc3OC(C)(C)[C@@H]2CC1([2H])[2H] [9-CD3-(8-D2)-THC]
T = 1 h after 5 mg/Kg single dose (oral gavage; morphine s.c.), * values >10.0 excluded from evaluation
  Withdrawal test, test 1: 4.7 gram force and 4.8 gram force and 6.0 gram force (2×) and 5.0 gram force and 4.5 gram force and 6.1 gram force and 7.1 gram force
T = 1 h after 5 mg/Kg
  Withdrawal test, All group average: 5.68 gram force
  Withdrawal test, Average: 4.54 gram force and 6.14 gram force and 6.76 gram force and 5.24 gram force and 5.64 gram force and 4.88 gram force and 6.16 gram force and 6.06 gram force
  Withdrawal test, test 4: 4.3 gram force and 4.5 gram force and 5.9 gram force and 6.7 gram force and 7.1 gram force and 4.7 gram force and 5.3 gram force and 4.2 gram force
  Withdrawal test, test 5: 5.4 gram force and 8.7 gram force and 7.7 gram force and 5.2 gram force and 4.3 gram force and 4.7 gram force and 4.5 gram force and 8.5 gram force
[1]
  Withdrawal test, test 2: 4.1 gram force and 5.8 gram force and 6.5 gram force and 4.0 gram force and 4.8 gram force and 4.6 gram force and 8.9 gram force and 5.6 gram force
  Withdrawal test, test 3: 4.2 gram force and 6.9 gram force and 7.7 gram force and 5.3 gram force and 7.5 gram force and 4.3 gram force and 6.1 gram force and 4.9 gram force
T = 3 h after 5 mg/Kg
  Withdrawal test, All group average: 5.67 gram force
  Withdrawal test, Average: 5.16 gram force and 6.42 gram force and 4.72 gram force and 6.08 gram force (2×) and 5.64 gram force and 5.92 gram force and 5.30 gram force
  Withdrawal test, test 2: 5.9 gram force and 5.4 gram force and 5.0 gram force and 5.1 gram force (2×) and 9.2 gram force and 7.2 gram force and 6.5 gram force
  Withdrawal test, test 4: 4.7 gram force and 9.2 gram force and 4.3 gram force and 5.9 gram force and 6.2 gram force and 6.6 gram force and 5.2 gram force and 4.6 gram force
  Withdrawal test, test 5: 5.8 gram force and 6.7 gram force and 4.0 gram force (2×) and 6.4 gram force and 4.5 gram force and 4.8 gram force and 5.3 gram force
  Withdrawal test, test 6: 4.1 gram force and 4.9 gram force (2×) and 4.3 gram force
[2]
  Withdrawal test, test 1: 4.6 gram force and 4.4 gram force (2×) and 4.7 gram force and 6.9 gram force and 8.2 gram force and 7.6 gram force and 4.5 gram force
  Withdrawal test, test 3: 4.8 gram force and 6.4 gram force and 5.6 gram force (3×) and *12.8 gram force and 4.7 gram force and 4.9 gram force
T = 24 h after 5 mg/Kg
  Withdrawal test, All group average: 5.28 gram force
  Withdrawal test, Average: 4.70 gram force and 5.96 gram force and 4.56 gram force and 6.33 gram force and 4.98 gram force and 5.32 gram force and 4.80 gram force and 5.56 gram force
  Withdrawal test, test 1: 6.0 gram force and 7.5 gram force and 4.0 gram force and 7.6 gram force and 5.0 gram force and 4.4 gram force and 4.9 gram force and 4.5 gram force
  Withdrawal test, test 2: 4.6 gram force and 6.0 gram force and 4.0 gram force and 7.5 gram force and 6.5 gram force and 5.3 gram force and 5.7 gram force and 5.0 gram force
  Withdrawal test, test 3: 4.6 gram force and 4.2 gram force and 4.0 gram force (2×) and 5.6 gram force and 5.4 gram force and 5.3 gram force and 6.8 gram force
  Withdrawal test, test 6: 4.5 gram force
T = 24 h after 5 mg/Kg, group average vs baseline
  Withdrawal test, Change from b.l.: −2.6%
[3]
  Withdrawal test, test 4: 4.3 gram force (2×) and 4.0 gram force and 6.8 gram force (2×) and *10.3 gram force and 4.1 gram force and 5.2 gram force
  Withdrawal test, test 5: 4.0 gram force (3×) and 8.1 gram force and 4.6 gram force and 5.1 gram force and 4.7 gram force and 6.3 gram force

— patent US20230331690A1, “THC DERIVATIVES, ORAL DOSAGE FORMS COMPRISING SAME, USES THEREOF FOR TREATING DISEASES AND DISORDERS AND SYNTHESIS THEREOF” (BAR-ILAN UNIVERSITY, priority 2020, published 2023)
